Results as given in PubChem BioAssay (NCI).
Values joined by “and” are separate entries in the source; they are usually repeats but may differ in a detail not shown here. Equal values may be shown once.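 Results reflect a 48-hour exposure of cells in 96-well plates to compound at five concentrations. GI50: concentration for 50% inhibition of growth. TGI is the concentration that stops growth completely.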

Key:
Experiment in all cases: NCI tumour cell line growth inhibition, 48 h
SNB-78 CNS = system: SNB-78 CNS
LOX IMVI melanoma = system: LOX IMVI melanoma
SW-620 colon = system: SW-620 colon
M14 melanoma = system: M14 melanoma
TK-10 renal = system: TK-10 renal
SF-539 CNS = system: SF-539 CNS
KM20L2 colon = system: KM20L2 colon
OVCAR-5 ovarian = system: OVCAR-5 ovarian
MDA-MB-435 = system: MDA-MB-435
CAKI-1 renal = system: CAKI-1 renal
SF-295 CNS = system: SF-295 CNS
HL-60(TB) leukemia = system: HL-60(TB) leukemia
MALME-3M melanoma = system: MALME-3M melanoma
NCI-H522 lung = system: NCI-H522 lung
PC-3 prostate = system: PC-3 prostate
HOP-62 NSCLC = system: HOP-62 NSCLC
SK-MEL-2 melanoma = system: SK-MEL-2 melanoma
K-562 leukemia = system: K-562 leukemia
HOP-92 NSCLC = system: HOP-92 NSCLC
OVCAR-4 ovarian = system: OVCAR-4 ovarian
BT-549 breast = system: BT-549 breast
P388/ADR leukemia = system: P388/ADR leukemia
KM12 colon = system: KM12 colon
COLO 205 colon = system: COLO 205 colon
HT29 colon = system: HT29 colon
NCI-H226 lung = system: NCI-H226 lung
P388 leukemia = system: P388 leukemia
IGROV1 ovarian = system: IGROV1 ovarian
SK-OV-3 ovarian = system: SK-OV-3 ovarian
XF 498 CNS = system: XF 498 CNS
SNB-19 CNS = system: SNB-19 CNS
CCRF-CEM leukemia = system: CCRF-CEM leukemia
NCI-H23 lung = system: NCI-H23 lung
U251 CNS = system: U251 CNS
M19-MEL melanoma = system: M19-MEL melanoma
OVCAR-8 ovarian = system: OVCAR-8 ovarian
A498 renal = system: A498 renal
T-47D breast = system: T-47D breast
HOP-18 NSCLC = system: HOP-18 NSCLC
SN12K1 renal = system: SN12K1 renal
HCT-116 colon = system: HCT-116 colon
HCT-15 colon = system: HCT-15 colon
SK-MEL-5 melanoma = system: SK-MEL-5 melanoma
ACHN renal = system: ACHN renal
NCI/ADR-RES ovarian = system: NCI/ADR-RES ovarian
DLD-1 colon = system: DLD-1 colon
MDA-MB-231 breast = system: MDA-MB-231 breast
SR leukemia = system: SR leukemia
RPMI-8226 leukemia = system: RPMI-8226 leukemia
DMS 114 small cell lung = system: DMS 114 small cell lung
UACC-257 melanoma = system: UACC-257 melanoma
UO-31 renal = system: UO-31 renal
MOLT-4 leukemia = system: MOLT-4 leukemia
UACC-62 melanoma = system: UACC-62 melanoma
A549 NSCLC = system: A549 NSCLC
OVCAR-3 ovarian = system: OVCAR-3 ovarian
MDA-N = system: MDA-N
SN12C renal = system: SN12C renal
SK-MEL-28 melanoma = system: SK-MEL-28 melanoma
NCI-H460 lung = system: NCI-H460 lung
SF-268 CNS = system: SF-268 CNS
DMS 273 small cell lung = system: DMS 273 small cell lung
DU-145 prostate = system: DU-145 prostate
SNB-75 CNS = system: SNB-75 CNS
RXF 393 renal = system: RXF 393 renal
786-0 renal = system: 786-0 renal
EKVX NSCLC = system: EKVX NSCLC
HCC-2998 colon = system: HCC-2998 colon
MCF7 breast = system: MCF7 breast

CN1CCN(c2ccc3nc(-c4ccc5nc(-c6ccc(O)cc6)[nH]c5c4)[nH]c3c2)CC1
TGI (SNB-78 CNS): 638 µM
TGI (LOX IMVI melanoma): 553 µM
TGI (SW-620 colon): 959 µM
TGI (M14 melanoma): 493 µM
TGI (TK-10 renal): 1300 µM
TGI (SF-539 CNS): 237 µM
TGI (KM20L2 colon): 1160 µM
TGI (OVCAR-5 ovarian): 679 µM
GI50 (MDA-MB-435): 41.7 µM
TGI (MDA-MB-435): 217 µM
TGI (CAKI-1 renal): 306 µM
GI50 (SF-295 CNS): 380 µM
TGI (SF-295 CNS): 678 µM
GI50 (HL-60(TB) leukemia): 9.03 µM and 24.3 µM
TGI (HL-60(TB) leukemia): 148 µM
GI50 (MALME-3M melanoma): 3.29 µM
TGI (MALME-3M melanoma): 62.5 µM
GI50 (NCI-H522 lung): 4.47 µM and 3.05 µM
TGI (NCI-H522 lung): 65.5 µM and 202 µM
TGI (PC-3 prostate): 1150 µM
TGI (HOP-62 NSCLC): 1040 µM
GI50 (SK-MEL-2 melanoma): 198 µM
TGI (SK-MEL-2 melanoma): 578 µM
GI50 (K-562 leukemia): 12.7 µM and 6.04 µM
TGI (K-562 leukemia): 470 µM
TGI (HOP-92 NSCLC): 169 µM
TGI (OVCAR-4 ovarian): 609 µM
TGI (BT-549 breast): 715 µM
TGI (P388/ADR leukemia): 725 µM
TGI (KM12 colon): 678 µM
GI50 (COLO 205 colon): 6.24 µM and 19.5 µM and 6.78 µM
TGI (COLO 205 colon): 147 µM
TGI (HT29 colon): 295 µM
TGI (NCI-H226 lung): 792 µM
TGI (P388 leukemia): 439 µM
TGI (IGROV1 ovarian): 436 µM
TGI (SK-OV-3 ovarian): 948 µM
TGI (XF 498 CNS): 116 µM
TGI (SNB-19 CNS): 909 µM
GI50 (CCRF-CEM leukemia): 12.9 µM (2×) and 15.4 µM
TGI (CCRF-CEM leukemia): 381 µM
TGI (NCI-H23 lung): 531 µM
TGI (U251 CNS): 799 µM
TGI (M19-MEL melanoma): 283 µM
GI50 (OVCAR-8 ovarian): 173 µM
TGI (OVCAR-8 ovarian): 539 µM
TGI (A498 renal): 763 µM
GI50 (T-47D breast): 4.32 µM and 14.2 µM
TGI (T-47D breast): 153 µM
TGI (HOP-18 NSCLC): 556 µM
TGI (SN12K1 renal): 552 µM
GI50 (HCT-116 colon): 5.66 µM and 30.5 µM
TGI (HCT-116 colon): 512 µM
TGI (HCT-15 colon): 736 µM
GI50 (SK-MEL-5 melanoma): 97.9 µM
TGI (SK-MEL-5 melanoma): 158 µM
TGI (ACHN renal): 666 µM
TGI (NCI/ADR-RES ovarian): 786 µM
TGI (DLD-1 colon): 487 µM
TGI (MDA-MB-231 breast): 639 µM
GI50 (SR leukemia): 4.53 µM
TGI (SR leukemia): 2000 µM
GI50 (RPMI-8226 leukemia): 183 µM
TGI (RPMI-8226 leukemia): 648 µM
TGI (DMS 114 small cell lung): 483 µM
TGI (UACC-257 melanoma): 188 µM
GI50 (UO-31 renal): 10.6 µM
TGI (UO-31 renal): 938 µM
GI50 (MOLT-4 leukemia): 37.2 µM and 39.4 µM
TGI (MOLT-4 leukemia): 482 µM
GI50 (UACC-62 melanoma): 14 µM and 86.9 µM and 28 µM
TGI (UACC-62 melanoma): 118 µM
TGI (A549 NSCLC): 756 µM
GI50 (OVCAR-3 ovarian): 13.5 µM and 59.5 µM and 10.1 µM
TGI (OVCAR-3 ovarian): 43.1 µM
GI50 (MDA-N): 8.77 µM
TGI (MDA-N): 354 µM
TGI (SN12C renal): 464 µM
GI50 (SK-MEL-28 melanoma): 18.8 µM
TGI (SK-MEL-28 melanoma): 92.3 µM
GI50 (NCI-H460 lung): 349 µM
TGI (NCI-H460 lung): 714 µM
GI50 (SF-268 CNS): 28.6 µM and 45.4 µM
TGI (SF-268 CNS): 717 µM
TGI (DMS 273 small cell lung): 158 µM
TGI (DU-145 prostate): 526 µM
TGI (SNB-75 CNS): 619 µM
TGI (RXF 393 renal): 529 µM
TGI (786-0 renal): 941 µM
GI50 (EKVX NSCLC): 257 µM
TGI (EKVX NSCLC): 489 µM
TGI (HCC-2998 colon): 1080 µM
GI50 (MCF7 breast): 5.33 µM
TGI (MCF7 breast): 422 µM
